Measured values reported in ChEMBL document CHEMBL5150030, “Enhancing the Safety and Efficacy of PSMA-Based Small-Molecule Drug Conjugates by Linker Stabilization and Conjugation to Transthyretin Binding Ligand” (J Med Chem, 2022).
The source made the active and inactive calls. The rule behind the calls is not given here. Square brackets hold non-standard residues; d marks the D form. Peptide text beside a SMILES is read from it. * marks the point of attachment. Dolaproine = CO[C@@H]([C@@H]1CCCN1)[C@@H](C)C(=O)O; Dil = CC[C@H](C)[C@H](NC)[C@@H](CC(=O)O)OC; X1 = C[C@@H](N*)[C@@H](O)c1ccccc1; NMeV = CN[C@H](C(=O)O)C(C)C

Columns and labels:
Transthyretin [1] = molecular target: T1, Transthyretin (Homo sapiens, UniProt P02766); test: Binding affinity to human serum TTR assessed as target occupancy incubated for 6 hrs by fluorescence polarization assay
[2] = Toxicity in mouse assessed as reduction in body weight at 20 mg/kg,ip measured for 21 days by every 3 days; assay type: organism-based; details: in vivo, 504 h, time 21 day
[3] = Toxicity in mouse assessed as reduction in body weight at 40 mg/kg,ip measured upto 21 days for every 3 days; assay type: organism-based; details: in vivo, 504 h, time < 21 day
[4] = Toxicity in mouse xenografted with human LNCaP cells assessed as change in body weight at 10 mg/kg,ip administrated upto 35 days for every 5 days; assay type: organism-based; details: in vivo, 840 h, time < 35 day
[5] = Drug concentration in CD-1 mouse at 3 mg/kg,ip measured upto 24 hrs by LC-MS/MS analysis; assay type: ADME, organism-based; details: in vivo
[6] = molecular target: Transthyretin (Mus musculus) (UniProt P07309); test: Binding affinity to mouse serum TTR assessed as target occupancy incubated for 1 hrs by fluorescence polarization assay
Transthyretin [7] = molecular target: T1, Transthyretin; test: Binding affinity to human TTR incubated for 20 mins by fluorescence polarization assay
[8] = Toxicity in CD-1 mouse assessed as body weight loss at 3.1 mg/kg,ip administrated upto 20 days for every 5 days; assay type: organism-based; details: in vivo, 480 h, time < 20 day
[9] = Stability of compound in PBS at 37 degreeC incubated for 24 hrs by RP-HPLC analysis; assay type: physicochemical; details: buffer
[10] = Stability of compound in human serum at 37 degreeC incubated for 24 hrs by RP-HPLC analysis; assay type: ADME, cell-free
[11] = Stability of compound in mouse serum at 37 degreeC incubated for 24 hrs by RP-HPLC analysis; assay type: ADME, cell-free; details: read-out: Stability
[12] = Drug metabolism in human liver assessed as cathepsin B mediated hydrolysis MMAE metabolite formation measured after 30 mins by HPLC/LC-MS/MS analysis; assay type: ADME, tissue-based; details: 0.5 h
LNCaP [13] = test: Cytotoxicity against human LNCaP cells assessed as reduction in cell viability incubated for 72 hrs by CellTiter-96 assay; assay type: functional, cell-based
LNCaP [14] = test: Cytotoxicity against human LNCaP cells assessed as reduction in cell viability incubated for 72 hrs in presence of TTR by CellTiter-96 assay; assay type: functional, cell-based
DU-145 [15] = test: Cytotoxicity against human DU-145 cells assessed as reduction in cell viability incubated for 72 hrs by CellTiter-96 assay; assay type: functional, cell-based; details: DU-145, 72 h
DU-145 [16] = test: Cytotoxicity against human DU-145 cells assessed as reduction in cell viability incubated for 72 hrs in presence of TTR by CellTiter-96 assay; assay type: functional, cell-based; details: DU-145, 72 h
HeLa [17] = test: Cytotoxicity against human HeLa cells assessed as reduction in cell viability incubated for 72 hrs by CellTiter-96 assay; assay type: functional, cell-based
HeLa [18] = test: Cytotoxicity against human HeLa cells assessed as reduction in cell viability incubated for 72 hrs in presence of TTR by CellTiter-96 assay; assay type: functional, cell-based
[19] = Toxicity in mouse assessed as maximum tolerated dose administered intraperitoneally measured upto 21 days for every 3 days; details: in vivo, route ip, time < 21 day
LNCaP [20] = test: Antitumor activity against human LNCaP cells xenografted mouse assessed as reduction in tumor growth at 3.1 mg/kg,ip administrated upto 35 days for every 5 days; assay type: functional, organism-based; details: time <= 35.0 day
[21] = Toxicity in mouse xenografted with human LNCaP cells assessed as increase in body weight at 3.1 mg/kg,ip administrated upto 35 days for every 5 days; assay type: organism-based; details: in vivo, 840 h, time < 35 day
[22] = Toxicity in mouse xenografted with human LNCaP cells assessed as mouse survival time at 3.1 mg/kg,ip administrated upto 35 days for every 5 days; assay type: organism-based; details: in vivo, 840 h, time < 35 day
LNCaP [23] = test: Antitumor activity against human LNCaP cells xenografted mouse assessed as reduction in tumor relapse at 3.1 mg/kg,ip administrated upto 35 days for every 5 days; assay type: functional, organism-based; details: time <= 35.0 day
[24] = Toxicity in CD-1 mouse assessed as body weight loss at 2.5 mg/kg,ip administrated upto 20 days for every 5 days; assay type: organism-based; details: in vivo, 480 h, time < 20 day
[25] = Drug concentration in CD-1 mouse at 2.5 mg/kg,ip measured upto 24 hrs by LC-MS/MS analysis; assay type: ADME, organism-based; details: in vivo
[26] = Drug metabolism in human liver assessed as cathepsin B mediated hydrolysis MMAE metabolite formation measured after 15 mins by HPLC/LC-MS/MS analysis; assay type: ADME, tissue-based; details: 0.25 h
[27] = Toxicity in mouse assessed as increase in body weight at 6.2 mg/kg,ip measured upto 21 days for every 3 days; assay type: organism-based; details: in vivo, 504 h, time < 21 day
[28] = Toxicity in CD-1 mouse assessed as body weight loss at 0.4 mg/kg,ip administrated upto 20 days for every 5 days; assay type: organism-based; details: in vivo, 480 h, time < 20 day

SMILES: O=C(O)c1ccc2nc(-c3cc(Cl)cc(Cl)c3)oc2c1
- Activity (Transthyretin [1]): 49.5%

SMILES: CC(=O)O[C@@]12CO[C@@H]1C[C@H](O)[C@@]1(C)C(=O)[C@H](O)C3=C(C)[C@@H](OC(=O)[C@H](O)[C@@H](NC(=O)OC(C)(C)C)c4ccccc4)C[C@@](O)([C@@H](OC(=O)c4ccccc4)[C@H]21)C3(C)C [DOCETAXEL ANHYDROUS]
- Activity [2]: Toxic
- Activity [3]: Toxic
- Activity [4]: Non-Toxic

SMILES: CC[C@H](C)[C@@H]([C@@H](CC(=O)N1CCC[C@H]1[C@H](OC)[C@@H](C)C(=O)N[C@H](C)[C@@H](O)c1ccccc1)OC)N(C)C(=O)[C@@H](NC(=O)[C@H](C(C)C)N(C)C(=O)OCc1ccc(NC(=O)[C@H](CCCNC(N)=O)NC(=O)[C@@H](NC(=O)[C@H](CCC(=O)O)NC(=O)CCCCCN2C(=O)CC(SCCC(=O)NC(Cc3cn(CCOCCOCCNCCCCCCOc4cc(OCCCc5c(C)n[nH]c5C)cc(C(=O)O)c4)nn3)C(=O)NCCCCCC(=O)NCCCC[C@H](NC(=O)N[C@@H](CCC(=O)O)C(=O)O)C(=O)O)C2=O)C(C)C)cc1)C(C)C (some centres not stated)
- Drug uptake [5]: Active
- Activity [6]: Active
- Activity (Transthyretin [1]): 67.5%
- Kd (Transthyretin [7]): 448 nM
- Activity [8]: Non-Toxic
- Stability [9]: Stable
- Stability [10]: Stable
- remaining at 24 h [11]: 71.3%
- Drug metabolism [12]: Metabolite_Detected
- IC50 (LNCaP [13]): 1.02 nM
- IC50 (LNCaP [14]): 1.19 nM
- IC50 (DU-145 [15]): 421 nM
- IC50 (DU-145 [16]): 1250 nM
- IC50 (HeLa [17]): 259 nM
- IC50 (HeLa [18]): 816 nM
- MTD at 504 h [19]: 3.1 mg/kg
- Activity (LNCaP [20]): Active
- Activity [21]: Toxic
- Survival [22]: 100 days
- Activity (LNCaP [23]): Active

SMILES: C#CCC(NC(=O)CCSC1CC(=O)N(CCCCCC(=O)N[C@@H](CCC(=O)O)C(=O)N[C@H](C(=O)N[C@@H](CCCNC(N)=O)C(=O)Nc2ccc(COC(=O)N(C)[C@H](C(=O)N[C@H](C(=O)N(C)[C@@H]([C@@H](C)CC)[C@@H](CC(=O)N3CCC[C@H]3[C@H](OC)[C@@H](C)C(=O)N[C@H](C)[C@@H](O)c3ccccc3)OC)C(C)C)C(C)C)cc2)C(C)C)C1=O)C(=O)NCCCCCC(=O)NCCCC[C@H](NC(=O)N[C@@H](CCC(=O)O)C(=O)O)C(=O)O (some centres not stated)
- Stability [9]: Stable
- Stability [10]: Stable
- remaining at 24 h [11]: 64.1%
- Activity [24]: Non-Toxic
- Drug uptake [25]: Active
- Drug metabolism [26]: Metabolite_Detected
- IC50 (LNCaP [13]): 0.83 nM
- IC50 (LNCaP [14]): 0.81 nM
- IC50 (DU-145 [15]): 1050 nM
- IC50 (DU-145 [16]): 1020 nM
- IC50 (HeLa [17]): 551 nM
- IC50 (HeLa [18]): 525 nM
- Activity [27]: Toxic
- MTD at 504 h [19]: 5 mg/kg

SMILES: CC[C@H](C)[C@@H]([C@@H](CC(=O)N1CCC[C@H]1[C@H](OC)[C@@H](C)C(=O)N[C@H](C)[C@@H](O)c1ccccc1)OC)N(C)C(=O)[C@@H](NC(=O)[C@@H](NC)C(C)C)C(C)C (H-[NMeV]V[Dil][Dolaproine]-X1)
- Activity [28]: Toxic
- IC50 (LNCaP [13]): 0.79 nM
- IC50 (LNCaP [14]): 0.71 nM
- IC50 (DU-145 [15]): 0.55 nM
- IC50 (DU-145 [16]): 0.62 nM
- IC50 (HeLa [17]): 1.1 nM
- IC50 (HeLa [18]): 1 nM

SMILES: Cc1n[nH]c(C)c1CCCOc1cc(OCCCCCCNCCOCCOCCN=[N+]=[N-])cc(C(=O)O)c1
- Activity (Transthyretin [1]): 80.7%
- Kd (Transthyretin [7]): 74.3 nM
